Results from ChEMBL document CHEMBL5625219, “Design, synthesis fusidic acid derivatives alleviate acute lung injury via inhibiting MAPK/NF-κB/NLRP3 pathway” (Eur J Med Chem, 2023).
Active and inactive are the calls of the source. No cut-off for these calls is given here.

Legend:
RAW264.7 [1] = assay: cells; conditions: Mus musculus
Description: Anti-inflammatory activity in mouse RAW264.7 cells assessed as inhibition of LPS-induced TNF-alpha production preincubated with compound for 1 hrs followed by LPS stimulation and measured after 23 hrs by ELISA

RAW264.7 [2] = assay: Inhibition of NFkappaB signaling pathway in LPS-stimulated mouse RAW264.7 cells assessed as decrease in NFkappaB protein level at 2.5 to 10 uM by Western blot analysis; format: cell-based; conditions: dose 2.5-10 µM
RAW264.7 [3] = assay: Anti-inflammatory activity in LPS-stimulated mouse RAW264.7 cells assessed as reduction in iNOS expression by Western blot analysis; format: functional, cell-based; conditions: dose 2.5-10 µM
Mus musculus [4] = assay: (§1) Anti-inflammatory activity in LPS-induced BALB/c mouse model of […] assessed as inhibition of LPS-induced increase in lung W/D ratio at 5 to 20 mg/kg, po preadministered with compound for 3 days followed by LPS stimulation for 6 hrs after 1 hrs compound administration on day 3; format: functional, organism-based; conditions: dose 5-20 mg/kg, time 3.0 day
Mus musculus [5] = assay: as §1, with “increase in TNF-alpha expression in BALF at 5” for “increase in lung W/D ratio at 5”, “day 3 by ELISA” for “day 3”; format: functional, organism-based; conditions: dose 5-20 mg/kg, time 3.0 day
Mus musculus [6] = assay: (§2) Anti-inflammatory activity in LPS-induced BALB/c mouse model of […] assessed as attenuation of lung alveolar hemorrhage at 5 to 20 mg/kg, po preadministered with compound for 3 days followed by LPS stimulation for 6 hrs after 1 hrs compound administration on day 3 by H&E staining based analysis; format: functional, organism-based; conditions: dose 5-20 mg/kg, time 3.0 day
[7] = Cytotoxicity against mouse RAW264.7 cells assessed as inhibition of cell growth incubated for 24 hrs by MTT assay; format: toxicity, cell-based
RAW264.7 [8] = assay: Inhibition of MAPK signaling pathway in LPS-stimulated mouse RAW264.7 cells assessed as decrease in phosphorylation of ERK at 2.5 to 10 uM by Western blot analysis; format: cell-based; conditions: dose 2.5-10 µM
Mus musculus [9] = assay: (§3) In vivo inhibition of MAPK activation in LPS-induced BALB/c mouse model of […] assessed as inhibition of ERK phosphorylation preadministered orally with compound for 3 days followed by LPS stimulation for 6 hrs after 1 hrs compound administration on day 3 by Western blot analysis; format: functional; conditions: dose 5-20 mg/kg, route po, time 3.0 day
Mus musculus [10] = assay: as §3, with “NFkappaB” for “MAPK”, “IkappaBalpha degradation” for “ERK phosphorylation”; format: functional; conditions: dose 5-20 mg/kg, route po, time 3.0 day
Mus musculus [11] = assay: (§4) In vivo inhibition of NFkappaB activation in LPS-induced BALB/c mouse model of […] assessed as inhibition of NFkappaB degradation preadministered orally with compound for 3 days followed by LPS stimulation for 6 hrs after 1 hrs compound administration on day 3 by Western blot analysis; format: functional; conditions: dose 5-20 mg/kg, route po, time 3.0 day
Mus musculus [12] = assay: as §1, with “increase in NO production in BALF at 5” for “increase in lung W/D ratio at 5”, “day 3 by Griess reagent based method” for “day 3”; format: functional, organism-based; conditions: dose 5-20 mg/kg, time 3.0 day
Mus musculus [13] = assay: Anti-inflammatory activity in LPS-induced BALB/c mouse model of […] assessed as inhibition of COX-2 expression preadministered orally with compound for 3 days followed by LPS stimulation for 6 hrs after 1 hrs compound administration on day 3 by Western blot analysis; format: functional, organism-based; conditions: dose 5-20 mg/kg, route po, time 3.0 day
Mus musculus [14] = assay: In vivo inhibition of MAPK activation in LPS-induced BALB/c mouse model of […] assessed as inhibition of JNK phosphorylation preadministered orally with compound for 3 days followed by LPS stimulation for 6 hrs after 1 hrs compound administration on day 3 by Western blot analysis; format: functional; conditions: dose 5-20 mg/kg, route po, time 3.0 day
RAW264.7 [15] = assay: Cytotoxicity against mouse RAW264.7 cells assessed as reduction in cell viability at 30 uM incubated for 24 hrs by MTT assay relative to control; format: toxicity, cell-based; conditions: raw264.7, 24 h
Mus musculus [16] = assay: as §4, with “NLRP3 inflammasome” for “NFkappaB”, “reduction in NLRP3 expression” for “inhibition of NFkappaB degradation”; format: functional; conditions: dose 5-20 mg/kg, route po, time 3.0 day
RAW264.7 [17] = assay: Anti-inflammatory activity in LPS-stimulated mouse RAW264.7 cells assessed as reduction in COX-2 expression by Western blot analysis; format: functional, cell-based; conditions: dose 2.5-10 µM
Mus musculus [18] = assay: as §1, with “increase in TNF-alpha expression in serum at 5” for “increase in lung W/D ratio at 5”, “day 3 by ELISA” for “day 3”; format: functional, organism-based; conditions: dose 5-20 mg/kg, time 3.0 day
RAW264.7 [19] = assay: Inhibition of MAPK signaling pathway in LPS-stimulated mouse RAW264.7 cells assessed as decrease in phosphorylation of JNK at 2.5 to 10 uM by Western blot analysis; format: cell-based; conditions: dose 2.5-10 µM
Mus musculus [20] = assay: as §4, with “NLRP3 inflammasome” for “NFkappaB”, “reduction in IL-1beta expression” for “inhibition of NFkappaB degradation”; format: functional; conditions: dose 5-20 mg/kg, route po, time 3.0 day
RAW264.7 [21] = assay: cells; conditions: Mus musculus; remark: listed apart in the source
Description: Anti-inflammatory activity in mouse RAW264.7 cells assessed as inhibition of LPS-induced IL-6 production preincubated with compound for 1 hrs followed by LPS stimulation and measured after 23 hrs by ELISA

[22] = target: NACHT, LRR and PYD domains-containing protein 3 (Mus musculus) (UniProt Q8R4B8); assay: Inhibition of NLRP3 inflammasome activation in LPS-stimulated mouse RAW264.7 cells assessed as decrease in caspase-1 expression at 2.5 to 10 uM by Western blot analysis; format: cell-based; conditions: dose 2.5-10 µM
Mus musculus [23] = assay: Anti-inflammatory activity in LPS-induced BALB/c mouse model of […] assessed as inhibition of iNOS expression preadministered orally with compound for 3 days followed by LPS stimulation for 6 hrs after 1 hrs compound administration on day 3 by Western blot analysis; format: functional, organism-based; conditions: dose 5-20 mg/kg, route po, time 3.0 day
[24] = target: NACHT, LRR and PYD domains-containing protein 3 (Mus musculus) (UniProt Q8R4B8); assay: Inhibition of NLRP3 inflammasome activation in LPS-stimulated mouse RAW264.7 cells assessed as downregulation of IL-1beta expression by Western blot analysis; format: cell-based; conditions: dose 2.5-10 µM
RAW264.7 [25] = assay: Inhibition of MAPK signaling pathway in LPS-stimulated mouse RAW264.7 cells assessed as decrease in phosphorylation of p38 MAPK at 2.5 to 10 uM by Western blot analysis; format: cell-based; conditions: dose 2.5-10 µM
RAW264.7 [26] = assay: cells; conditions: Mus musculus; remark: listed apart in the source
Description: Anti-inflammatory activity in mouse RAW264.7 cells assessed as inhibition of LPS-induced NO production preincubated with compound for 1 hrs followed by LPS stimulation and measured after 23 hrs by Griess reagent based method

Mus musculus [27] = assay: as §4, with “NLRP3 inflammasome” for “NFkappaB”, “reduction in caspase-1 expression” for “inhibition of NFkappaB degradation”; format: functional; conditions: dose 5-20 mg/kg, route po, time 3.0 day
Mus musculus [28] = assay: as §1, with “increase in IL-6 expression in serum at 5” for “increase in lung W/D ratio at 5”, “day 3 by ELISA” for “day 3”; format: functional, organism-based; conditions: dose 5-20 mg/kg, time 3.0 day
RAW264.7 [29] = assay: Inhibition of NFkappaB signaling pathway in LPS-stimulated mouse RAW264.7 cells assessed as decrease in IkappaBalpha protein level at 2.5 to 10 uM by Western blot analysis; format: cell-based; conditions: dose 2.5-10 µM
RAW264.7 [30] = assay: Anti-inflammatory activity in LPS-stimulated mouse RAW264.7 cells assessed as inhibition of ROS production at 2.5 to 10 uM preincubated with compound for 1 hrs followed by LPS stimulation and measured after 23 hrs by DCFH-DA staining based flow cytometric analysis; format: functional, cell-based; conditions: dose 2.5-10 µM, time 24.0 hrs
Mus musculus [31] = assay: as §1, with “increase in NO production in serum at 5” for “increase in lung W/D ratio at 5”, “day 3 by Griess reagent based method” for “day 3”; format: functional, organism-based; conditions: dose 5-20 mg/kg, time 3.0 day
Mus musculus [32] = assay: In vivo inhibition of MAPK activation in LPS-induced BALB/c mouse model of […] assessed as inhibition of p38 MAPK phosphorylation preadministered orally with compound for 3 days followed by LPS stimulation for 6 hrs after 1 hrs compound administration on day 3 by Western blot analysis; format: functional; conditions: dose 5-20 mg/kg, route po, time 3.0 day
[33] = target: NACHT, LRR and PYD domains-containing protein 3 (Mus musculus) (UniProt Q8R4B8); assay: Inhibition of NLRP3 inflammasome activation in LPS-stimulated mouse RAW264.7 cells assessed as downregulation of NLRP3 expression by Western blot analysis; format: cell-based; conditions: dose 2.5-10 µM
RAW264.7 [34] = assay: Anti-inflammatory activity in LPS-stimulated mouse RAW264.7 cells assessed as inhibition of ROS production preincubated with compound for 1 hrs followed by LPS stimulation and measured after 23 hrs by DCFH-DA staining based confocal laser microscopic analysis; format: functional, cell-based; conditions: dose 2.5-10 µM, time 24.0 hrs
Mus musculus [35] = assay: as §1, with “increase in IL-6 expression in BALF at 5” for “increase in lung W/D ratio at 5”, “day 3 by ELISA” for “day 3”; format: functional, organism-based; conditions: dose 5-20 mg/kg, time 3.0 day
Mus musculus [36] = assay: as §2, with “inflammatory cell infiltration in lungs” for “lung alveolar hemorrhage”; format: functional, organism-based; conditions: dose 5-20 mg/kg, time 3.0 day

NACHT, LRR and PYD domains-containing protein 3 (Mus musculus), sequence (Q8R4B8 whole entry, the tested form may be a part): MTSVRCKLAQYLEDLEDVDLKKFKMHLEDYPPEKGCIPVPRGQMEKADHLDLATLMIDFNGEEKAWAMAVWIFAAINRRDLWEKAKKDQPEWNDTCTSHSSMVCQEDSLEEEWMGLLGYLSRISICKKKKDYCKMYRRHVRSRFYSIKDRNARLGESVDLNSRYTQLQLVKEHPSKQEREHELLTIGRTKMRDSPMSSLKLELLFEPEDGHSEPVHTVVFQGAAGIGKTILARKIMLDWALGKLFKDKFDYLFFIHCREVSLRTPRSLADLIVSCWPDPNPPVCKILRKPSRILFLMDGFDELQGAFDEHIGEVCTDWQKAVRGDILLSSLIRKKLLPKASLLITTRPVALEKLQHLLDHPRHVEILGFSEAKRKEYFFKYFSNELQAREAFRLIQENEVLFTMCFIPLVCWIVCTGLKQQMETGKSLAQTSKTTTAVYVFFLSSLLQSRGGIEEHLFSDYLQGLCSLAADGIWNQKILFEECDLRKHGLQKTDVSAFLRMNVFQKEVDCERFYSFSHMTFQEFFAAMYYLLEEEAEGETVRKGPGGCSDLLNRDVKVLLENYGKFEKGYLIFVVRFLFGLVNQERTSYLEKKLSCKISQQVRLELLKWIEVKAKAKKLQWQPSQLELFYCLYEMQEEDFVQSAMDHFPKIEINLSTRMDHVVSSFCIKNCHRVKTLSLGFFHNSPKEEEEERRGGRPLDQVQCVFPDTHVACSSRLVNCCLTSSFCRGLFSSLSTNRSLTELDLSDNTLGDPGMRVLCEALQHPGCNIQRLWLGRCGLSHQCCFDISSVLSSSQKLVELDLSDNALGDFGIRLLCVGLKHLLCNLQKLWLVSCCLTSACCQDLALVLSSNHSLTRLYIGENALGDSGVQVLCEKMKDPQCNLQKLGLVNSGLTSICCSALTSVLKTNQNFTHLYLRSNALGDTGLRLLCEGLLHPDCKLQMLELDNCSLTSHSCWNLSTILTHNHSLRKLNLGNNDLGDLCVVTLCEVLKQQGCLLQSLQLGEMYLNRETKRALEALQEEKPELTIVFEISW

IC50 (RAW264.7 [1]): 3.88 µM | IC50 (RAW264.7 [21]): 1.85 µM | inhibition [22]: Active | inhibition [24]: Dose-Dependent Effect | IC50 (RAW264.7 [26]): 3.26 µM | inhibition [33]: Dose-Dependent Effect
SMILES: CC(=O)O[C@H]1C[C@@]2(C)[C@@H](C[C@@H](O)[C@H]3[C@@]4(C)CC[C@@H](O)[C@@H](C)[C@@H]4CC[C@@]32C)/C1=C(\CCC=C(C)C)C(=O)OCc1cn(-c2ccccc2)nn1
inhibition (RAW264.7 [2]): Active | Activity (RAW264.7 [3]): Dose-Dependent Effect | Activity (Mus musculus [4]): Active | Activity (Mus musculus [5]): Active | Activity (Mus musculus [6]): Active | IC50 at 24 h [7]: 94.3 µM | inhibition (RAW264.7 [8]): Active | inhibition (Mus musculus [9]): Dose-Dependent Effect | inhibition (Mus musculus [10]): Dose-Dependent Effect | inhibition (Mus musculus [11]): Dose-Dependent Effect | Activity (Mus musculus [12]): Active | Activity (Mus musculus [13]): Dose-Dependent Effect | inhibition (Mus musculus [14]): Dose-Dependent Effect | Activity (RAW264.7 [15]): 102.79% | inhibition (Mus musculus [16]): Dose-Dependent Effect | Activity (RAW264.7 [17]): Dose-Dependent Effect | Activity (Mus musculus [18]): Active | inhibition (RAW264.7 [19]): Active | inhibition (Mus musculus [20]): Dose-Dependent Effect | Activity (Mus musculus [23]): Dose-Dependent Effect | inhibition (RAW264.7 [25]): Active | inhibition (Mus musculus [27]): Dose-Dependent Effect | Activity (Mus musculus [28]): Active | inhibition (RAW264.7 [29]): Active | Activity (RAW264.7 [30]): Active | Activity (Mus musculus [31]): Active | inhibition (Mus musculus [32]): Dose-Dependent Effect | Activity (RAW264.7 [34]): Dose-Dependent Effect | Activity (Mus musculus [35]): Active | Activity (Mus musculus [36]): Active
